In patent US4762648A, “Monofunctional and bisfunctional anthraquinone-(oxy-2,3-oxidopropanes), processes for their preparation, and their use as drugs” (Hoechst Aktiengesellschaft, priority 1983, dated 1988) one finds IC50 and LD50 data, which are given here for five molecules.

The structures appear in SMILES notation. ≈ marks a conversion by molar mass, not a printed value.

Data set [1] has as its system L 1210 leukemia cells. As to the kind of experiment: Colony formation of L 1210 leukemia cells in soft agar (stem cell assay). It counts as cell-based. Particulars: Mus musculus. How it is done:
In this test, cytostatically active substances produce a reduction of the number of colonies observed relative to an untreated control. Specifically, the test is carried out as follows:
500 Leukemia cells per plate are incubated with different concentrations of test substance for 1 hour at 37° C. The cells are then washed twice with McCoy 5a medium and finally, after addition of 0.3% of agar, poured out into Petri dishes. Controls are incubated with fresh medium only. In place of the 1-hour incubation, different concentrations of the test substance are in some cases mixed into the upper agar layer so as to achieve continuous exposure of the cells over the entire incubation period. After the agar has solidified, the plates are incubated in an incubating chamber for 7 days at 37° C. (5% CO2, 95% relative atmospheric humidity). Thereafter, the number of colonies formed which have a diameter of 60μ is counted. The results are quoted as the number of colonies in the treated agar plates expressed as a percentage of those in the untreated control. From the dose/effect curve thus obtained, the IC50 is determined and serves as a measure of the effectiveness of the substance.

A short description of data set [2]: Determination of acute toxicity, intraperitoneal. Particulars: mouse, in vivo, ip, NMRI mice, day 14, Litchfield Wilcoxon. How it is done:
To determine the acute toxicity, NMRI mice were injected intraperitoneally,on day 0, with different doses of the test substance suspended in 0.5 ml of 0.5% strength carboxymethylcellulose. Control groups were given solely 0.5 ml of carboxymethylcellulose solution. 5 Mice were employed per concentration of test substance. On day 14, the number of surviving mice is determined and the LD50 found therefrom by the Litchfield Wilcoxon method.

The test system of data set [3] is L 1210 leukemia cells. Put plainly: Proliferation assay: incorporation of C-14-thymidine in L 1210 cells. It counts as cell-based. Particulars: Mus musculus, read-out: Proliferation assay IC50. How it is done:
The determination of the cytotoxic activity of the compounds described in the present patent is carried out on L 1210 leukemia cells of the mouse. Specifically, the following test systems were used:
In this in vitro method, after incubation of the cells with varying concentrations of the test substance a determination is carried out of the extent to which the cells can incorporate radioactively labelled DNA-precursors (for example C-14-labelled thymidine).
L 1210 Cells in the exponential growth phase (5×10^3 /ml in RPMI 1640) are incubated for 72 hours, in a microtitration plate, with different concentrations of the test substance (37° C., 5% CO2, 95% relative atmospheric humidity). Controls consist of cells which are incubated solely with fresh medium. All assays are carried out in quadruplicate. After 65 hours, 50 μl of C-14-thymidine (1.5 μc/ml) are added in order to radioactively label the DNA of the cell. After 7 hours' incubation, the cells are filtered off with suction, and the DNA is precipitated with 5% strength dichloroacetic acid and successively washed with water and methanol. After drying at 50° C., the radioactivity built into the DNA is determined after adding 5 ml of scintillation fluid.
The results are quoted as a ratio of the scintillation indices obtained after incubation with the test substance and obtained with the untreated control. From the measurements thus obtained, the dose/effect curve is determined and the IC50, i.e. the concentration which under test conditions reduces the incorporation of radioactive thymidine by 50% relative to the control, is determined graphically.

Where [4] appears, read: L1210, 168 h, L 1210 colony formation in soft agar, continuous exposure, 7 days, read-out: Stem cell assay IC50, Incubation: Continuous.
The mark [5] stands for this setting: L1210, L 1210 colony formation in soft agar, 1 hour incubation, 7 days, read-out: Stem cell assay IC50, Incubation: 1 hour.
[6] abbreviates: L1210, L 1210 cells, 72 hours, C-14-thymidine incorporation.

As for `COc1cccc2c1C(=O)c1c(O)c3c(c(O)c1C2=O)C[C@@](O)(C(=O)CO)C[C@@H]3O[C@H]1C[C@H](N)[C@H](O)[C@H](C)O1` [Adriamycin, reference compound], the IC50 in the data set on L 1210 leukemia cells [1] (L1210, 168 h, read-out: Stem cell assay IC50, Incubation: Continuous) amounted to 0.02 µg/mL (≈ 0.0368 µM); in the data set with L 1210 leukemia cells [1] (L1210, read-out: Stem cell assay IC50, Incubation: 1 hour), 0.044 µg/mL (≈ 0.081 µM); in the data set on L 1210 leukemia cells [3] (L1210, 72 h) it was 0.006 µg/mL (≈ 0.011 µM). The molecule also registered an LD50 at 336 h in data set [2] of 14 mg/kg.
Turning to `O=C1c2ccccc2C(=O)c2c(OCC3CO3)ccc(O)c21` (centres unmarked) [Example 3, 1-Hydroxy-anthraquinone-4-(oxy-2,3-oxido-propane)], the IC50 with L 1210 leukemia cells [1] (setting [4]) turned out to be 0.03 µg/mL (≈ 0.101 µM); in the data set on L 1210 leukemia cells [1] (setting [5]) it was 0.066 µg/mL (≈ 0.223 µM); with L 1210 leukemia cells [3] (setting [6]), 0.028 µg/mL (≈ 0.0945 µM).
Taken in the same sequence, the figures for `O=C1c2ccccc2C(=O)c2c(OCC3CO3)ccc(OCC3CO3)c21` (centres unmarked) [Example 4, Anthraquinone-1,4-bis-(oxy-2,3-oxido-propane)] were 0.0033 µg/mL (≈ 0.00937 µM), 0.004 µg/mL (≈ 0.0114 µM) and 0.0022 µg/mL (≈ 0.00624 µM).
Turning to `O=C1c2ccc(OCC3CO3)cc2C(=O)c2ccc(OCC3CO3)cc21` (centres unmarked) [Example 5, Anthraquinone-2,6-bis(oxy-2,3-oxido-propane)], the IC50 in the data set with L 1210 leukemia cells [1] (setting [4]) amounted to 0.01 µg/mL (≈ 0.0284 µM); in the data set on L 1210 leukemia cells [1] (setting [5]), 0.0083 µg/mL (≈ 0.0236 µM); in the data set with L 1210 leukemia cells [3] (L1210, 72 h) it was 0.0044 µg/mL (≈ 0.0125 µM). This molecule also registered an LD50 at 336 h in data set [2] of 200 mg/kg.
With `O=C1c2cccc(OCC3CO3)c2C(=O)c2c(OCC3CO3)cccc21` (centres unmarked) [Example 8, Anthraquinone-1,8-bis-(oxy-2,3-oxido-propane)], the IC50 turned out to be 0.0085 µg/mL (≈ 0.0241 µM) with L 1210 leukemia cells [1] (setting [4]), 0.03 µg/mL (≈ 0.0851 µM) in the data set on L 1210 leukemia cells [1] (setting [5]) and 0.028 µg/mL (≈ 0.0795 µM) in the data set with L 1210 leukemia cells [3] (setting [6]).
